Source: patent EP0238060B1, “Cephalosporin derivatives, processes for their preparation and antibacterial agents” (Banyu Pharmaceutical Co., Ltd., priority 1986, dated 1987)
Values after ≈ are worked out from the molar mass of the structure shown. Like-named read-outs stand apart in the source and are kept apart here.

Tests used:
Assay in all cases: In vitro antibacterial activity, agar plate dilution method (MIC)
[1] = test system: Ps.cepacia 23; format: cell-based, Pseudomonas cepacia; conditions: Burkholderia cepacia; Ps.cepacia 23; Mueller Hinton agar, inoculum 10⁶ CFU/ml, 37°C, 16 hours; read-out: Minimum Inhibitory Concentration (MIC: µg/ml)
Description: (§1) The in vitro antibacterial activities of the compounds of the present invention against various microorganisms, were measured by the following agar plate dilution method. One platinum loopfull of each test microorganism incubated overnight in Mueller Hinton broth, was inoculated to Mueller Hinton agar (inoculum size: l0⁶ CFU/ml). Such culture media containing various antibiotics in various concentrations were prepared. After incubation at 37°C for l6 hours, the minimum inhibitory concentrations (MIC: µg/ml) were measured. As comparative compounds, Cefotaxime, Ceftazidime and the compounds of Reference Examples l to 4 were employed.

[2] = test system: S.aureus BB5703; format: cell-based; conditions: Staphylococcus aureus; S.aureus BB5703; Mueller Hinton agar, inoculum 10⁶ CFU/ml, 37°C, 16 hours; read-out: Minimum Inhibitory Concentration (MIC: µg/ml)
Description: as §1

[3] = test system: E.cloacae 963; format: cell-based; conditions: read-out: Minimum Inhibitory Concentration (MIC: µg/ml)
Description: as §1

[4] = test system: S.marcescens No. 16-2; format: cell-based; conditions: Serratia marcescens, NO.162; S.marcescens No. 16-2 (β-Lactamase-producing strain); Mueller Hinton agar, inoculum 10⁶ CFU/ml, 37°C, 16 hours; read-out: Minimum Inhibitory Concentration (MIC: µg/ml)
Description: as §1

[5] = test system: M.morganii GN5407; format: cell-based; conditions: Morganella morganii; M.morganii GN5407 (β-Lactamase-producing strain); Mueller Hinton agar, inoculum 10⁶ CFU/ml, 37°C, 16 hours; read-out: Minimum Inhibitory Concentration (MIC: µg/ml)
Description: as §1

[6] = test system: E.cloacae Nek 39; format: cell-based; conditions: Enterobacter cloacae, NEK39; E.cloacae Nek 39 (β-Lactamase-producing strain); Mueller Hinton agar, inoculum 10⁶ CFU/ml, 37°C, 16 hours; read-out: Minimum Inhibitory Concentration (MIC: µg/ml)
Description: as §1

[7] = test system: S.aureus JS1; format: cell-based; conditions: Staphylococcus aureus; S.aureus JS1 (β-Lactamase-producing strain); Mueller Hinton agar, inoculum 10⁶ CFU/ml, 37°C, 16 hours; read-out: Minimum Inhibitory Concentration (MIC: µg/ml)
Description: as §1

[8] = test system: K.pneumoniae No. 42; format: cell-based; conditions: Klebsiella pneumoniae; K.pneumoniae No. 42 (β-Lactamase-producing strain); Mueller Hinton agar, inoculum 10⁶ CFU/ml, 37°C, 16 hours; read-out: Minimum Inhibitory Concentration (MIC: µg/ml)
Description: as §1

[9] = test system: K.pneumoniae PCI-602; format: cell-based; conditions: Klebsiella pneumoniae, PCI602; K.pneumoniae PCI-602; Mueller Hinton agar, inoculum 10⁶ CFU/ml, 37°C, 16 hours; read-out: Minimum Inhibitory Concentration (MIC: µg/ml)
Description: as §1

[10] = test system: Ps.aeruginosa AKR17; format: cell-based; conditions: Pseudomonas aeruginosa; Ps.aeruginosa AKR17; Mueller Hinton agar, inoculum 10⁶ CFU/ml, 37°C, 16 hours; read-out: Minimum Inhibitory Concentration (MIC: µg/ml)
Description: as §1

[11] = test system: E.coli NIHJ JC2; format: cell-based; conditions: Escherichia coli, NIHJJC2; E.coli NIHJ JC2; Mueller Hinton agar, inoculum 10⁶ CFU/ml, 37°C, 16 hours; read-out: Minimum Inhibitory Concentration (MIC: µg/ml)
Description: as §1

[12] = test system: A.calcoaceticus No. 4; format: cell-based; conditions: Acinetobacter calcoaceticus; A.calcoaceticus No. 4; Mueller Hinton agar, inoculum 10⁶ CFU/ml, 37°C, 16 hours; read-out: Minimum Inhibitory Concentration (MIC: µg/ml)
Description: as §1

[13] = test system: E.coli CSH2 (RK1); format: cell-based; conditions: Escherichia coli, 16 h, read-out: Minimum Inhibitory Concentration (MIC: µg/ml)
Description: as §1

[14] = test system: Ps.aeruginosa AK 109; format: cell-based; conditions: Pseudomonas aeruginosa, AK109; Ps.aeruginosa AK 109; Mueller Hinton agar, inoculum 10⁶ CFU/ml, 37°C, 16 hours; read-out: Minimum Inhibitory Concentration (MIC: µg/ml)
Description: as §1

[15] = test system: C.freundii GN346; format: cell-based; conditions: Citrobacter freundii; C.freundii GN346 (β-Lactamase-producing strain); Mueller Hinton agar, inoculum 10⁶ CFU/ml, 37°C, 16 hours; read-out: Minimum Inhibitory Concentration (MIC: µg/ml)
Description: as §1

[16] = test system: E.coli CSH(RE45); format: cell-based; conditions: Escherichia coli, 16 h, read-out: Minimum Inhibitory Concentration (MIC: µg/ml)
Description: as §1

[17] = test system: S.aureus 209P NIHJ-JC1; format: cell-based; conditions: Staphylococcus aureus; S.aureus 209P NIHJ-JC1; Mueller Hinton agar, inoculum 10⁶ CFU/ml, 37°C, 16 hours; read-out: Minimum Inhibitory Concentration (MIC: µg/ml)
Description: as §1

[18] = test system: K.oxytoca GN10650; format: cell-based; conditions: Klebsiella oxytoca; K.oxytoca GN10650 (β-Lactamase-producing strain); Mueller Hinton agar, inoculum 10⁶ CFU/ml, 37°C, 16 hours; read-out: Minimum Inhibitory Concentration (MIC: µg/ml)
Description: as §1

[19] = test system: P.vulgaris HX-19; format: cell-based; conditions: Proteus vulgaris, HX19; P.vulgaris HX-19; Mueller Hinton agar, inoculum 10⁶ CFU/ml, 37°C, 16 hours; read-out: Minimum Inhibitory Concentration (MIC: µg/ml)
Description: as §1

[20] = test system: Ps.aeruginosa IFO3445; format: cell-based; conditions: Pseudomonas aeruginosa; Ps.aeruginosa IFO3445; Mueller Hinton agar, inoculum 10⁶ CFU/ml, 37°C, 16 hours; read-out: Minimum Inhibitory Concentration (MIC: µg/ml)
Description: as §1

[21] = test system: E.coli GN5482; format: cell-based; conditions: Escherichia coli; E.coli GN5482 (β-Lactamase-producing strain); Mueller Hinton agar, inoculum 10⁶ CFU/ml, 37°C, 16 hours; read-out: Minimum Inhibitory Concentration (MIC: µg/ml)
Description: as §1

[22] = test system: S.epidermidis IAM12012; format: cell-based; conditions: Staphylococcus epidermidis; S.epidermidis IAM12012; Mueller Hinton agar, inoculum 10⁶ CFU/ml, 37°C, 16 hours; read-out: Minimum Inhibitory Concentration (MIC: µg/ml)
Description: as §1

[23] = test system: M.luteus ATCC9341; format: cell-based; conditions: Micrococcus luteus; M.luteus ATCC9341; Mueller Hinton agar, inoculum 10⁶ CFU/ml, 37°C, 16 hours; read-out: Minimum Inhibitory Concentration (MIC: µg/ml)
Description: as §1

[24] = test system: S.marcescens IAM 1184; format: cell-based; conditions: Serratia marcescens, read-out: Minimum Inhibitory Concentration (MIC: µg/ml)
Description: as §1

[25] = test system: C.freundii GN346/16; format: cell-based; conditions: Citrobacter freundii; C.freundii GN346/16; Mueller Hinton agar, inoculum 10⁶ CFU/ml, 37°C, 16 hours; read-out: Minimum Inhibitory Concentration (MIC: µg/ml)
Description: as §1

[26] = test system: P.vulgaris No. 33; format: cell-based; conditions: Proteus vulgaris, read-out: Minimum Inhibitory Concentration (MIC: µg/ml)
Description: as §1

[27] = test system: Ps.maltophilia GN 12873; format: cell-based, Pseudomonas maltophilia; conditions: Stenotrophomonas maltophilia, GN12873; Ps.maltophilia GN 12873 (β-Lactamase-producing strain); Mueller Hinton agar, inoculum 10⁶ CFU/ml, 37°C, 16 hours; read-out: Minimum Inhibitory Concentration (MIC: µg/ml)
Description: as §1

SMILES	MIC [1]	MIC [2]	MIC [4]	MIC [5]	MIC [6]	MIC [7]	MIC [8]	MIC [9]	MIC [10]	MIC [11]	MIC [12]	MIC [13]	MIC [14]	MIC [15]	MIC [16]	MIC [17]	MIC [18]	MIC [19]	MIC [20]	MIC [21]	further results
C=C(O/N=C(\C(=O)NC1C(=O)N2C(C(=O)[O-])=C(C[n+]3ccc4cc(O)c(O)cc4c3)CSC12)c1csc(N)n1)C(=O)O (stereo not drawn) [Ex. 6, 7-[2-(2-aminothiazol-4-yl)-2-(l-carboxy-l-vinyloxyimino)acetamido]-3-(6,7-dihydroxy-2-isoquinolinio)methyl-3-cephem-4-carboxylate]	0.025 µg/mL (≈ 0.0408 µM)	50 µg/mL (≈ 81.6 µM)	0.1 µg/mL (≈ 0.163 µM)	0.05 µg/mL (≈ 0.0816 µM)	0.025 µg/mL (≈ 0.0408 µM)	100 µg/mL (≈ 163 µM)	0.025 µg/mL (≈ 0.0408 µM)	< 0.006 µg/mL	1.56 µg/mL (≈ 2.55 µM)	0.1 µg/mL (≈ 0.163 µM)	0.2 µg/mL (≈ 0.326 µM)	0.0125 µg/mL (≈ 0.0204 µM)	0.39 µg/mL (≈ 0.637 µM)	50 µg/mL (≈ 81.6 µM)	0.025 µg/mL (≈ 0.0408 µM)	25 µg/mL (≈ 40.8 µM)	0.05 µg/mL (≈ 0.0816 µM)	< 0.006 µg/mL	1.56 µg/mL (≈ 2.55 µM)	0.2 µg/mL (≈ 0.326 µM)	MIC ([3]; Enterobacter cloacae, 963, 16 h): 0.0125 µg/mL (≈ 0.0204 µM); MIC [22]: 12.5 µg/mL (≈ 20.4 µM); MIC [23]: 6.25 µg/mL (≈ 10.2 µM); MIC ([24]; IAM1184, 16 h): 0.0125 µg/mL (≈ 0.0204 µM); MIC [25]: 1.56 µg/mL (≈ 2.55 µM); MIC ([26]; NO.33, 16 h): 0.0125 µg/mL (≈ 0.0204 µM); MIC [27]: 25 µg/mL (≈ 40.8 µM)
C#CCON=C(C(=O)NC1C(=O)N2C(C(=O)[O-])=C(C[n+]3ccc4cc(O)c(O)cc4c3)CS[C@H]12)c1csc(N)n1 (stereo partly drawn) [Ex. 7, 7-[2-(2-aminothiazol-4-yl)-2-(2-propynyloxyimino)acetamido]-3-(6,7-dihydroxy-2-isoquinolio)methyl-3-cephem-4-carboxylate]	0.1 µg/mL (≈ 0.172 µM)	6.25 µg/mL (≈ 10.8 µM)	1.56 µg/mL (≈ 2.69 µM)	0.05 µg/mL (≈ 0.0861 µM)	0.2 µg/mL (≈ 0.344 µM)	50 µg/mL (≈ 86.1 µM)	< 0.006 µg/mL	< 0.006 µg/mL	100 µg/mL (≈ 172 µM)	0.2 µg/mL (≈ 0.344 µM)	0.2 µg/mL (≈ 0.344 µM)	< 0.006 µg/mL	0.78 µg/mL (≈ 1.34 µM)	50 µg/mL (≈ 86.1 µM)	0.05 µg/mL (≈ 0.0861 µM)	1.56 µg/mL (≈ 2.69 µM)	1.56 µg/mL (≈ 2.69 µM)	< 0.006 µg/mL	0.78 µg/mL (≈ 1.34 µM)	0.78 µg/mL (≈ 1.34 µM)	MIC ([3]; Enterobacter cloacae, E.cloacae 963, Mueller Hinton agar, inoculum 10⁶ CFU/ml, 37°C, 16 hours): 0.0125 µg/mL (≈ 0.0215 µM); MIC [22]: 0.2 µg/mL (≈ 0.344 µM); MIC [23]: 0.2 µg/mL (≈ 0.344 µM); MIC ([24]; IAM1184, S.marcescens IAM 1184, Mueller Hinton agar, inoculum 10⁶ CFU/ml, 37°C, 16 hours): < 0.006 µg/mL; MIC [25]: 0.78 µg/mL (≈ 1.34 µM); MIC ([26]; P.vulgaris No. 33 (β-Lactamase-producing strain), Mueller Hinton agar, inoculum 10⁶ CFU/ml, 37°C, 16 hours): 0.05 µg/mL (≈ 0.0861 µM); MIC [27]: > 100 µg/mL
